Measured values from patent US7632857B2, “Histamine H3 receptor agents, preparation and therapeutic uses” (Eli Lilly and Company, priority 2004, dated 2009).

Target: T1, H3R (Homo sapiens, UniProt Q9Y5N1)
T1 construct: expressed in transfected cells; pcDNA3.1(+) vector, G418 selection)
Experiment: [35S] GTP γ [S] binding assay, antagonist activity in the presence of agonist
Type: biochemical
Details: membranes from H3R8-expressing HEK293 cell line; agonist R(−)alpha methylhistamine
Experimental: Membranes isolated as described in (Preparation of Histamine Receptor Subtype Membranes) were used in a [35S]GTPχS functional assay. Binding of [35S]GTPχS to membranes indicates agonist activity. Compounds of the invention of Formula I or Formula II were tested for their ability to inhibit binding in the presence of agonists. Alternately, the same transfected cell lines were used for a cAMP assay wherein H3R agonists inhibited forskolin-activated synthesis of cAMP. Compounds of Formula I or Formula II were tested for their ability to permit forskolin-stimulated cAMP synthesis in the presence of agonist.
cDNA for the human histamine 3 receptor was cloned and expressed as described in (A. Preparation H1R membranes), above. Transfected cells were selected using G418 (500μ/ml), grown, and tested for histamine binding by the SPA described above. For total binding, cells were assayed in a SPA reaction described above containing 50 mM Tris-HCL (assay buffer), pH 7.6, 1 mg wheat germ agglutinin SPA beads (Amersham Pharmacia Biotech, #RPNQ0001), and 1 nM (3H)-n-alpha-methylhistamine (NEN, NET1027) (total volume per well=200 μl). Thioperimide was added to determine non-specific binding. […]
Antagonist activity of selected compounds was tested for inhibition of [35S] […] Plates were counted in Wallac Trilux 1450 Microbeta scintillation counter for 1 minute. […]

T1 sequence (Q9Y5N1 whole entry): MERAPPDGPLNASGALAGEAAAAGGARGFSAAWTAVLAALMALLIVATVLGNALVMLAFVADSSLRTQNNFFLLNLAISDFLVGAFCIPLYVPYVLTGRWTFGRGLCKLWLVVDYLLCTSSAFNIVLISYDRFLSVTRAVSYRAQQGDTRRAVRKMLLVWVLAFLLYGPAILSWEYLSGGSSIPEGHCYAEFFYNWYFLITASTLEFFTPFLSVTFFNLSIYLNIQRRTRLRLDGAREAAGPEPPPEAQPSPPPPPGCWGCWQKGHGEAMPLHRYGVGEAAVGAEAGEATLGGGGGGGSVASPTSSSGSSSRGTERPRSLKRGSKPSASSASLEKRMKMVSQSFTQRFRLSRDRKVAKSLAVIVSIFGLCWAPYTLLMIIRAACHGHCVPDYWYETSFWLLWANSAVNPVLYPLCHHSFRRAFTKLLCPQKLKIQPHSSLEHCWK

| Ki | Structure (SMILES) |
| --- | --- |
| 4.9 nM | O=C(c1ccc(-c2ccccn2)cc1)N1CCC[C@H]1CN1CCCC1 |
| 32 nM | O=C(c1ccc(-c2ccc(OCCN3CCCCC3)cc2)cc1)N1CCC[C@H]1CN1CCCC1 |
